# Test results as given in the supplement of paper PMC4862054.
# Legend:
# Conditions in all cases: 72 h
# [1] = test system: BT-474
# Method in brief: (§1)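 For viability and cell death testing, 384-well plates carried compound at 5 concentrations in 10-fold steps over a compound-specific 10,000-fold range, and breast cancer cell lines were seeded in 20 µl suspension. After 72 h incubation, cell death was read by CellTox Green fluorescence (485/520 nm) before viability was read by CellTiter-Glo luminescence. EC50 was fitted from the dose-response curves and censored at the top concentration. Normalisation on each plate was to 0.1 % DMSO and a positive kill control.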
# [2] = test system: BT-549
# Method in brief: as §1
# [3] = test system: CAL-120
# Method in brief: as §1
# [4] = test system: CAL-148
# Method in brief: as §1
# [5] = test system: CAL-51
# Method in brief: as §1
# [6] = test system: CAL-85-1
# Method in brief: as §1
# [7] = test system: DU-4475
# Method in brief: as §1
# [8] = test system: HCC1143
# Method in brief: as §1
# [9] = test system: HCC1599
# Method in brief: as §1
# [10] = test system: HCC1937
# Method in brief: as §1
# [11] = test system: HDQ-P1
# Method in brief: as §1
# [12] = test system: Hs578T
# Method in brief: as §1
# [13] = test system: MCF-10A
# Method in brief: as §1
# [14] = test system: MDA-MB-231
# Method in brief: as §1
# [15] = test system: MDA-MB-436
# Method in brief: as §1
# [16] = test system: MDA-MB-453
# Method in brief: as §1
# [17] = test system: MDA-MB-468
# Method in brief: as §1
# [18] = test system: MFM-223
# Method in brief: as §1
# [19] = test system: SK-BR-3
# Method in brief: as §1
# [20] = test system: CAL-51; remark: listed apart in the source
# Method in brief: (§2)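 For viability, cells received 2.5 µl CellTiter-Blue for 2 h at 37 °C and fluorescence was read at 560/590 nm. Before this, breast cancer cell lines in 20 µl suspension had been incubated for 72 h on 384-well plates pre-loaded with compound dissolved in 5 µl medium. EC50 was obtained from a percent-inhibition dose-response fit censored at the highest concentration, after normalisation of each plate to vehicle and a positive kill control; rows with a zero drug sensitivity score were discarded.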
# [21] = test system: CAL-85-1; remark: listed apart in the source
# Method in brief: as §2
# [22] = test system: DU-4475; remark: listed apart in the source
# Method in brief: as §2
# [23] = test system: HDQ-P1; remark: listed apart in the source
# Method in brief: as §2
# [24] = test system: BT-474; remark: listed apart in the source
# Method in brief: as §2
# [25] = test system: BT-549; remark: listed apart in the source
# Method in brief: as §2
# [26] = test system: HCC1143; remark: listed apart in the source
# Method in brief: as §2
# [27] = test system: HCC1599; remark: listed apart in the source
# Method in brief: as §2
# [28] = test system: Hs578T; remark: listed apart in the source
# Method in brief: as §2
# [29] = test system: MDA-MB-436; remark: listed apart in the source
# Method in brief: as §2
# [30] = test system: MDA-MB-468; remark: listed apart in the source
# Method in brief: as §2
# [31] = test system: MFM-223; remark: listed apart in the source
# Method in brief: as §2
# [32] = test system: SK-BR-3; remark: listed apart in the source
# Method in brief: as §2
# [33] = test system: BT-474; remark: listed apart in the source
# Method: (§3)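 Drug sensitivity and resistance testing (DSRT) of breast cancer cell lines in 384-well plates, 5 concentrations in 10-fold dilutions over a compound-specific 10,000-fold range. After 72 h, cytotoxicity was read by CellTox Green fluorescence and viability by CellTiter-Glo luminescence (multiplexed), normalised to DMSO and benzethonium chloride controls. EC50 is the inflection point of the fitted dose-response curve (bottom asymptote free, so it can be relative for partial curves) and is censored at the highest tested concentration. Rows with DSS 0 (no meaningful response) were excluded.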
# [34] = test system: BT-549; remark: listed apart in the source
# Method: as §3
# [35] = test system: CAL-120; remark: listed apart in the source
# Method: as §3
# [36] = test system: CAL-148; remark: listed apart in the source
# Method: as §3
# [37] = test system: CAL-51; remark: listed apart in the source
# Method: as §3
# [38] = test system: CAL-85-1; remark: listed apart in the source
# Method: as §3
# [39] = test system: DU-4475; remark: listed apart in the source
# Method: as §3
# [40] = test system: HCC1143; remark: listed apart in the source
# Method: as §3
# [41] = test system: HDQ-P1; remark: listed apart in the source
# Method: as §3
# [42] = test system: Hs578T; remark: listed apart in the source
# Method: as §3
# [43] = test system: MCF-10A; remark: listed apart in the source
# Method: as §3
# [44] = test system: MDA-MB-231; remark: listed apart in the source
# Method: as §3
# [45] = test system: MDA-MB-453; remark: listed apart in the source
# Method: as §3
# [46] = test system: MFM-223; remark: listed apart in the source
# Method: as §3
# [47] = test system: HCC1599; remark: listed apart in the source
# Method: as §3
# [48] = test system: MDA-MB-436; remark: listed apart in the source
# Method: as §3
# [49] = test system: MDA-MB-468; remark: listed apart in the source
# Method: as §3
smiles,measurement,setting,value
CN[C@@H]1C[C@H]2O[C@@](C)([C@@H]1OC)n1c3ccccc3c3c4c(c5c6ccccc6n2c5c31)C(=O)N[C@H]4O [UCN-01],"EC50, CellTiter-Glo",[1],43.4 nM
same,"EC50, CellTiter-Glo",[2],118 nM
same,"EC50, CellTiter-Glo",[3],43.6 nM
same,"EC50, CellTiter-Glo",[4],1490 nM
same,"EC50, CellTiter-Glo",[5],77.5 nM
same,"EC50, CellTiter-Glo",[6],81.3 nM
same,"EC50, CellTiter-Glo",[7],184 nM
same,"EC50, CellTiter-Glo",[8],145 nM
same,"EC50, CellTiter-Glo",[9],28 nM
same,"EC50, CellTiter-Glo",[10],193 nM
same,"EC50, CellTiter-Glo",[11],217 nM
same,"EC50, CellTiter-Glo",[12],36.8 nM
same,"EC50, CellTiter-Glo",[13],45.7 nM
same,"EC50, CellTiter-Glo",[14],34.4 nM
same,"EC50, CellTiter-Glo",[15],88.1 nM
same,"EC50, CellTiter-Glo",[16],277 nM
same,"EC50, CellTiter-Glo",[17],93.2 nM
same,"EC50, CellTiter-Glo",[18],137 nM
same,"EC50, CellTiter-Glo",[19],57.6 nM
same,"EC50, CellTiter-Blue viability",[20],140 nM
same,"EC50, CellTiter-Blue viability",[21],175 nM
same,"EC50, CellTiter-Blue viability",[22],212 nM
same,"EC50, CellTiter-Blue viability",[23],59.7 nM
same,"EC50, CellTiter-Blue viability",[24],846 nM
same,"EC50, CellTiter-Blue viability",[25],111 nM
same,"EC50, CellTiter-Blue viability",[26],48.5 nM
same,"EC50, CellTiter-Blue viability",[27],98.1 nM
same,"EC50, CellTiter-Blue viability",[28],30.6 nM
same,"EC50, CellTiter-Blue viability",[29],695 nM
same,"EC50, CellTiter-Blue viability",[30],105 nM
same,"EC50, CellTiter-Blue viability",[31],355 nM
same,"EC50, CellTiter-Blue viability",[32],80.2 nM
same,"EC50, CellTox Green",[33],2470 nM
same,"EC50, CellTox Green",[34],220 nM
same,"EC50, CellTox Green",[35],1580 nM
same,"EC50, CellTox Green",[36],6850 nM
same,"EC50, CellTox Green",[37],63.9 nM
same,"EC50, CellTox Green",[38],168 nM
same,"EC50, CellTox Green",[39],128 nM
same,"EC50, CellTox Green",[40],114 nM
same,"EC50, CellTox Green",[41],34.3 nM
same,"EC50, CellTox Green",[42],266 nM
same,"EC50, CellTox Green",[43],130 nM
same,"EC50, CellTox Green",[44],88.8 nM
same,"EC50, CellTox Green",[45],6000 nM
same,"EC50, CellTox Green",[46],46.3 nM
CCC1=C[C@@H]2CN(C1)Cc1c([nH]c3ccccc13)[C@@](C(=O)OC)(c1cc3c(cc1OC)N(C)[C@H]1[C@@](O)(C(=O)OC)[C@H](OC(C)=O)[C@]4(CC)C=CCN5CC[C@]31[C@@H]54)C2 [Vinorelbine],"EC50, CellTiter-Glo",[1],76.3 nM
same,"EC50, CellTiter-Glo",[2],26.3 nM
same,"EC50, CellTiter-Glo",[3],24.1 nM
same,"EC50, CellTiter-Glo",[4],35.7 nM
same,"EC50, CellTiter-Glo",[5],118 nM
same,"EC50, CellTiter-Glo",[6],24.5 nM
same,"EC50, CellTiter-Glo",[7],1510 nM
same,"EC50, CellTiter-Glo",[8],23.5 nM
same,"EC50, CellTiter-Glo",[9],206 nM
same,"EC50, CellTiter-Glo",[10],29.5 nM
same,"EC50, CellTiter-Glo",[11],40.6 nM
same,"EC50, CellTiter-Glo",[12],69.7 nM
same,"EC50, CellTiter-Glo",[13],27.3 nM
same,"EC50, CellTiter-Glo",[14],119 nM
same,"EC50, CellTiter-Glo",[15],42.9 nM
same,"EC50, CellTiter-Glo",[16],12.6 nM
same,"EC50, CellTiter-Glo",[17],26.7 nM
same,"EC50, CellTiter-Glo",[18],76.8 nM
same,"EC50, CellTiter-Glo",[19],3.1 nM
same,"EC50, CellTiter-Blue viability",[20],116 nM
same,"EC50, CellTiter-Blue viability",[21],23.1 nM
same,"EC50, CellTiter-Blue viability",[22],304 nM
same,"EC50, CellTiter-Blue viability",[23],74 nM
same,"EC50, CellTiter-Blue viability",[24],33.5 nM
same,"EC50, CellTiter-Blue viability",[25],37.8 nM
same,"EC50, CellTiter-Blue viability",[26],41.8 nM
same,"EC50, CellTiter-Blue viability",[27],176 nM
same,"EC50, CellTiter-Blue viability",[28],39.8 nM
same,"EC50, CellTiter-Blue viability",[29],72.8 nM
same,"EC50, CellTiter-Blue viability",[30],33.5 nM
same,"EC50, CellTiter-Blue viability",[31],44.4 nM
same,"EC50, CellTiter-Blue viability",[32],30.9 nM
same,"EC50, CellTox Green",[33],85.9 nM
same,"EC50, CellTox Green",[34],492 nM
same,"EC50, CellTox Green",[35],1500 nM
same,"EC50, CellTox Green",[36],42.5 nM
same,"EC50, CellTox Green",[37],45.2 nM
same,"EC50, CellTox Green",[38],23.2 nM
same,"EC50, CellTox Green",[47],356 nM
same,"EC50, CellTox Green",[42],95.4 nM
same,"EC50, CellTox Green",[43],13.7 nM
same,"EC50, CellTox Green",[44],263 nM
same,"EC50, CellTox Green",[48],273 nM
same,"EC50, CellTox Green",[49],3510 nM
same,"EC50, CellTox Green",[46],5.52 nM
